pIC50: −log10 of the molar value.
Target: T1, TNKS2 (Homo sapiens, UniProt Q9H2K2)
T1 construct: purchased BPS Bioscience, San Diego, USA 80572 (TNKS2 Histone Ribosylation Assay Kit)
T1 sequence (Q9H2K2 1-1166): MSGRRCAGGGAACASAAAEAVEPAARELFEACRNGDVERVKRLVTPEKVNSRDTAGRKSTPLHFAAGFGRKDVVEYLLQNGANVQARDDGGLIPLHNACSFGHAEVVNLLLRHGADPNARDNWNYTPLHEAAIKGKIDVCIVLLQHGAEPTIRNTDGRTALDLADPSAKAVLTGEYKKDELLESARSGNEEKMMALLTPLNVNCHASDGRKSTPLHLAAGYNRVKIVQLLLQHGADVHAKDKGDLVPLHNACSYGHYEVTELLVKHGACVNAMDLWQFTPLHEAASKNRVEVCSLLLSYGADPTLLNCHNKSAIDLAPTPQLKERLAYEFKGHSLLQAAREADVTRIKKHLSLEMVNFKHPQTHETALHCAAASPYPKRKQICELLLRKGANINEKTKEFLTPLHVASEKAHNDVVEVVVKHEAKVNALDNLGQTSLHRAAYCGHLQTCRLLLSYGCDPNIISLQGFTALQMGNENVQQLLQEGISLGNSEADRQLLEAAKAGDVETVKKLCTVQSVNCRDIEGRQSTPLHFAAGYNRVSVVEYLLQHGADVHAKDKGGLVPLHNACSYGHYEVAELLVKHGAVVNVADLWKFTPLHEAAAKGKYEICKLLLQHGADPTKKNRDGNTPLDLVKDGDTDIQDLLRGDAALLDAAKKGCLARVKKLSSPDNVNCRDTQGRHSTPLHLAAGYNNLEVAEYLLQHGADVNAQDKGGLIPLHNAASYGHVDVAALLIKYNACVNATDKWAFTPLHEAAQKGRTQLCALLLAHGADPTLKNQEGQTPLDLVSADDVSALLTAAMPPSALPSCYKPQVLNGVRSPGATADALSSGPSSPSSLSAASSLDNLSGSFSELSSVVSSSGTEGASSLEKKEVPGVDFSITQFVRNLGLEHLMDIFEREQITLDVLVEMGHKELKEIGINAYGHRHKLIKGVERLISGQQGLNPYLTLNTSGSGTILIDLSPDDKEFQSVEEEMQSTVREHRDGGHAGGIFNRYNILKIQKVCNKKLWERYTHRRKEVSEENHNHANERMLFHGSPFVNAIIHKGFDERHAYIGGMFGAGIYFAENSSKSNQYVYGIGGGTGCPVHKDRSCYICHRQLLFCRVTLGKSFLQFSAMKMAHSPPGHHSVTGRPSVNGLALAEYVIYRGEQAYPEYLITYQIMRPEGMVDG
Assay: TNKS2 Assay B (auto-parsylation, [3H]-NAD+ SPA)
Format: biochemical
Details: 6 nM TNKS2, auto-parsylation, over night at room temperature

Q: With `Cc1cnc2c(C(=O)N[C@H]3CC[C@H](C(=O)Nc4ccncc4Cl)CC3)cnn2c1` [Example 104, N-{trans-4-[(3-chloropyridin-4-yl)carbamoyl]cyclohexyl}-6-methyl pyrazolo[1,5-a]pyrimidine-3-carboxamide] as the compound, how does the pIC50 read?
A: Its pIC50 is 7.18.

Q: How did the pIC50 turn out when `O=C(N[C@H]1CC[C@H](C(=O)Nc2ccncc2Cl)CC1)c1cnn2cccnc12` [Example 105, N-{trans-4-[(3-chloropyridin-4-yl)carbamoyl]cyclohexyl}pyrazolo[1,5-a]pyrimidine-3-carboxamide] was run?
A: Its pIC50 is 6.92.

Q: With `CCOC(=O)c1cnc2c(C(=O)N[C@H]3CC[C@H](C(=O)Nc4ccc(F)cc4Cl)CC3)cnn2c1` [Example 106, ethyl 3-({trans-4-[(2-chloro-4-fluorophenyl)carbamoyl]cyclohexyl}carbamoyl)pyrazolo[1,5-a]pyrimidine-6-carboxylate] as the compound, how does the pIC50 read?
A: The pIC50 was 7.82.

Q: How did the pIC50 turn out when `O=C(N[C@H]1CC[C@H](C(=O)Nc2ccc(F)cc2Cl)CC1)c1cnn2ccc(N3CCOCC3)nc12` [Example 107, N-{trans-4-[(2-chloro-4-fluorophenyl)carbamoyl]cyclohexyl}-5-(morpholin-4-yl)pyrazolo[1,5-a]pyrimidine-3-carboxamide] was run?
A: The pIC50 was 7.13.

Q: `O=C(N[C@H]1CC[C@H](C(=O)Nc2ccc(F)cc2Cl)CC1)c1cnn2ccc(N3CCCC3)nc12` [Example 108] was tested. Which pIC50 did it give?
A: The pIC50 was 7.22.

Q: `CN1CCN(c2ccn3ncc(C(=O)N[C@H]4CC[C@H](C(=O)Nc5ccc(F)cc5Cl)CC4)c3n2)CC1` [Example 109] was tested. Which pIC50 did it give?
A: The pIC50 was 7.42.

Q: `COCc1cc(C)n2ncc(C(=O)N[C@H]3CC[C@H](C(=O)Nc4ccc(F)cc4Cl)CC3)c2n1` [Example 110, N-{trans-4-[(2-chloro-4-fluorophenyl)carbamoyl]cyclohexyl}-5-(methoxymethyl)-7-methylpyrazolo[1,5-a]pyrimidine-3-carboxamide] was tested. Which pIC50 did it give?
A: The pIC50 was 7.07.

Q: With `COCc1cc(C)nc2c(C(=O)N[C@H]3CC[C@H](C(=O)Nc4ccc(F)cc4Cl)CC3)cnn12` [Example 111, N-{trans-4-[(2-chloro-4-fluorophenyl)carbamoyl]cyclohexyl}-7-(methoxymethyl)-5-methylpyrazolo[1,5-a]pyrimidine-3-carboxamide] as the compound, how does the pIC50 read?
A: The pIC50 was 6.68.

Q: With `COCc1cc(C)n2ncc(C(=O)N[C@H]3CC[C@H](C(=O)Nc4c(F)cc(F)cc4Cl)CC3)c2n1` [Example 112, N-{trans-4-[(2-chloro-4,6-difluorophenyl)carbamoyl]cyclohexyl}-5-(methoxymethyl)-7-methylpyrazolo[1,5-a]pyrimidine-3-carboxamide] as the compound, how does the pIC50 read?
A: Its pIC50 is 7.17.

Q: `Cc1nc2c(C(=O)N[C@H]3CC[C@H](C(=O)Nc4ccc(F)cc4Cl)CC3)cnn2c2c1CCC2` [Example 113, N-{trans-4-[(2-chloro-4-fluorophenyl)carbamoyl]cyclohexyl}-5-methyl-7,8-dihydro-6H-cyclopenta[e]pyrazolo[1,5-a]pyrimidine-3-carboxamide] was tested. Which pIC50 did it give?
A: The pIC50 was 7.28.

Q: With `CC(O)CNc1ccc2ncc(C(=O)N[C@H]3CC[C@H](C(=O)Nc4ccc(F)cc4Cl)CC3)n2n1` (stereo partly drawn) [Example 114, N-{trans-4-[(2-chloro-4-fluorophenyl)carbamoyl]cyclohexyl}-6-[(2-hydroxypropyl)amino]imidazo[1,2-b]pyridazine-3-carboxamide] as the compound, how does the pIC50 read?
A: Its pIC50 is 6.32.

Q: How did the pIC50 turn out when `CNC(=O)c1[nH]cnc1C(=O)NC12CCC(C(=O)Nc3ccc(F)cc3Cl)(CC1)CC2` [Example 115, N^4-{4-[(2-chloro-4-fluorophenyl)carbamoyl]bicyclo[2.2.2]oct-1-yl}-N^5-methyl-1H-imidazole-4,5-dicarboxamide] was run?
A: Its pIC50 is 6.72.

Q: How did the pIC50 turn out when `CNC(=O)c1[nH]cnc1C(=O)NC12CCC(C(=O)Nc3c(F)cc(F)cc3Cl)(CC1)CC2` [Example 116, N^4-{4-[(2-chloro-4,6-difluorophenyl)carbamoyl]bicyclo[2.2.2]oct-1-yl}-N^5-methyl-1H-imidazole-4,5-dicarboxamide] was run?
A: Its pIC50 is 6.23.

Q: `O=C(NC12CCC(C(=O)Nc3ccc(F)cc3Cl)(CC1)CC2)c1cnn2cccnc12` [Example 117, N-{4-[(2-chloro-4-fluorophenyl)carbamoyl]bicyclo[2.2.2]oct-1-yl}pyrazolo[1,5-a]pyrimidine-3-carboxamide] was tested. Which pIC50 did it give?
A: The pIC50 was 6.34.

Q: With `Cc1cc(NC(=O)C23CCC(NC(=O)c4cnn5cccnc45)(CC2)CC3)c(Cl)cc1F` [Example 118, N-{4-[(2-chloro-4-fluoro-5-methylphenyl)carbamoyl]bicyclo[2.2.2]oct-1-yl}pyrazolo[1,5-a]pyrimidine-3-carboxamide] as the compound, how does the pIC50 read?
A: The pIC50 was 7.17.

Q: `O=C(NC12CCC(C(=O)Nc3c(F)cc(F)cc3Cl)(CC1)CC2)c1cnn2cccnc12` [Example 119, N-{4-[(2-chloro-4,6-difluorophenyl)carbamoyl]bicyclo[2.2.2]oct-1-yl}pyrazolo[1,5-a]pyrimidine-3-carboxamide] was tested. Which pIC50 did it give?
A: Its pIC50 is 6.21.

Q: How did the pIC50 turn out when `O=C(NC12CCC(C(=O)Nc3cnccc3Cl)(CC1)CC2)c1cnn2cccnc12` [Example 120, N-{4-[(4-chloropyridin-3-yl)carbamoyl]bicyclo[2.2.2]oct-1-yl}pyrazolo[1,5-a]pyrimidine-3-carboxamide] was run?
A: Its pIC50 is 6.59.

Q: With `O=C(NC12CCC(C(=O)Nc3ccc(F)cc3Cl)(CC1)CC2)c1cnc2cccnn12` [Example 121, N-{4-[(2-chloro-4-fluorophenyl)carbamoyl]bicyclo[2.2.2]oct-1-yl}imidazo[1,2-b]pyridazine-3-carboxamide] as the compound, how does the pIC50 read?
A: The pIC50 was 6.48.

Q: `Cc1cc(NC(=O)C23CCC(NC(=O)c4cnc5cccnn45)(CC2)CC3)c(Cl)cc1F` [Example 122, N-{4-[(2-chloro-4-fluoro-5-methylphenyl)carbamoyl]bicyclo[2.2.2]oct-1-yl}imidazo[1,2-b]pyridazine-3-carboxamide] was tested. Which pIC50 did it give?
A: The pIC50 was 6.72.

Q: With `O=C(NC12CCC(C(=O)Nc3c(F)cc(F)cc3Cl)(CC1)CC2)c1cnc2cccnn12` [Example 123, N-{4-[(2-chloro-4,6-difluorophenyl)carbamoyl]bicyclo[2.2.2]oct-1-yl}imidazo[1,2-b]pyridazine-3-carboxamide] as the compound, how does the pIC50 read?
A: Its pIC50 is 6.32.

Q: With `O=C(NC12CCC(C(=O)Nc3cnccc3Cl)(CC1)CC2)c1cnc2cccnn12` [Example 124, N-{4-[(4-chloropyridin-3-yl)carbamoyl]bicyclo[2.2.2]oct-1-yl}imidazo[1,2-b]pyridazine-3-carboxamide] as the compound, how does the pIC50 read?
A: The pIC50 was 6.59.

Q: With `Cc1cc(C)n2ncc(C(=O)NC34CCC(C(=O)Nc5ccc(F)cc5Cl)(CC3)CC4)c2n1` [Example 125, N-{4-[(2-chloro-4-fluorophenyl)carbamoyl]bicyclo[2.2.2]oct-1-yl}-5,7-dimethylpyrazolo[1,5-a]pyrimidine-3-carboxamide] as the compound, how does the pIC50 read?
A: Its pIC50 is 6.89.

Q: `Cc1cc(C)n2ncc(C(=O)NC34CCC(C(=O)Nc5cc(C)c(F)cc5Cl)(CC3)CC4)c2n1` [Example 126, N-{4-[(2-chloro-4-fluoro-5-methylphenyl)carbamoyl]bicyclo[2.2.2]oct-1-yl}-5,7-dimethylpyrazolo[1,5-a]pyrimidine-3-carboxamide] was tested. Which pIC50 did it give?
A: The pIC50 was 7.19.

Q: `Cc1cc(C)n2ncc(C(=O)NC34CCC(C(=O)Nc5c(F)cc(F)cc5Cl)(CC3)CC4)c2n1` [Example 127, N-{4-[(2-chloro-4,6-difluorophenyl)carbamoyl]bicyclo[2.2.2]oct-1-yl}-5,7-dimethylpyrazolo[1,5-a]pyrimidine-3-carboxamide] was tested. Which pIC50 did it give?
A: Its pIC50 is 6.52.

Q: How did the pIC50 turn out when `Cc1cc(C)n2ncc(C(=O)NC34CCC(C(=O)Nc5cnccc5Cl)(CC3)CC4)c2n1` [Example 128, N-{4-[(4-chloropyridin-3-yl)carbamoyl]bicyclo[2.2.2]oct-1-yl}-5,7-dimethylpyrazolo[1,5-a]pyrimidine-3-carboxamide] was run?
A: The pIC50 was 7.02.

Q: `O=C(NCC1CCCO1)c1nc[nH]c1C(=O)N[C@H]1CC[C@H](C(=O)Nc2cc(F)ccc2Cl)CC1` (stereo partly drawn) [Example 129, N^5-{trans-4-[(2-chloro-5-fluorophenyl)carbamoyl]cyclohexyl}-N^4-(tetrahydrofuran-2-ylmethyl)-1H-imidazole-4,5-dicarboxamide] was tested. Which pIC50 did it give?
A: Its pIC50 is 7.47.

Q: How did the pIC50 turn out when `O=C(N[C@H]1CC[C@H](C(=O)Nc2cc(F)c(F)cc2Cl)CC1)c1cnn2cccnc12` [Example 130, N-{trans-4-[(2-chloro-4,5-difluorophenyl)carbamoyl]cyclohexyl}pyrazolo[1,5-a]pyrimidine-3-carboxamide] was run?
A: The pIC50 was 7.74.

Q: With `O=C(N[C@H]1CC[C@H](C(=O)Nc2cc(F)c(F)cc2Cl)CC1)c1cnc2cccnn12` [Example 132, N-{trans-4-[(2-chloro-4,5-difluorophenyl)carbamoyl]cyclohexyl}imidazo[1,2-b]pyridazine-3-carboxamide] as the compound, how does the pIC50 read?
A: The pIC50 was 7.54.
